Patent US20150374673A1, “Combination Therapy for the Treatment of Nosocomial Pneumonia” (priority 2013, published 2015)
Like-named read-outs stand apart in the source and are kept apart here.

Experiments:
Assay in all cases: Initial MIC, microbroth dilution (CLSI), avibactam 4 mg/L
Type in all cases: cell-based
[1] = system: E. cloacae; conditions: Enterobacter cloacae
Source text: (§1) All MIC determinations including those performed in the checkerboard assay were done in cation-adjusted Mueller-Hinton broth (purchased from Becton Dickinson, Oxford UK). […]

[2] = system: E. coli; conditions: Escherichia coli
Source text: as §1

[3] = system: E. faecalis
Source text: as §1

[4] = system: S. aureus
Source text: as §1

[5] = system: K. pneumoniae; conditions: Klebsiella pneumoniae
Description: (§2) All MIC determinations including those performed in the checkerboard assay were done in cation-adjusted Mueller-Hinton broth (purchased from Becton Dickinson, Oxford UK).
(§3) Initial MIC data were determined by microbroth dilution methods as recommended by CLSI (2012b). Checkerboards were made in accordance with the method given by Pillai et. al., ? Antimicrobial Combinations in Antibiotics, LABORATORY MEDICINE (Lorian Ed., 3rd Ed. (2003)) p. 365-440 as per standard microbroth dilution tests but with agents in combination. […] A final avibactam concentration of 4 mg/L was used throughout the study. Antibacterial agents were combined into microtitre plates using the Evolution III liquid handling system.

[6] = system: P. aeruginosa; conditions: Pseudomonas aeruginosa
Description: as §2, §3

[7] = isolate 1 E. cloacae Basal MICs, read-out: MIC
[8] = Enterococcus faecalis, isolate 25 E. faecalis Basal MICs, read-out: MIC
[9] = Enterococcus faecalis, isolate 26 E. faecalis Basal MICs, read-out: MIC
[10] = Enterococcus faecalis, isolate 27 E. faecalis Basal MICs, read-out: MIC
[11] = Staphylococcus aureus, isolate 22 S. aureus Basal MICs, read-out: MIC
[12] = Staphylococcus aureus, isolate 23 S. aureus Basal MICs, Penicillinase+, read-out: MIC
[13] = Staphylococcus aureus, isolate 24 S. aureus Basal MICs, Penicillinase+, read-out: MIC
[14] = isolate 9 K. pneumoniae Basal MICs, read-out: MIC
[15] = isolate 16 P. aeruginosa Basal MICs, read-out: MIC
[16] = isolate 19 P. aeruginosa PER, read-out: MIC

C[C@H]1COc2c(N3CCN(C)CC3)c(F)cc3c(=O)c(C(=O)O)cn1c23 [Levofloxacin]
MIC [1, 7]: 0.03 µg/mL | MIC ([1]; isolate 2 E. cloacae Derepressed AmpC, read-out: MIC): 0.5 µg/mL | MIC ([1]; isolate 3 E. cloacae Derepressed AmpC, read-out: MIC): 0.06 µg/mL | MIC ([2]; isolate 5 E. coli CTX-M-15, read-out: MIC): 16 µg/mL | MIC ([2]; isolate 6 E. coli TEM-4, read-out: MIC): 0.015 µg/mL | MIC ([2]; isolate 7 E. coli SHV-12, read-out: MIC): 0.015 µg/mL | MIC ([2]; isolate 8 E. coli SHV-2, read-out: MIC): 16 µg/mL | MIC [3, 8]: 0.5 µg/mL | MIC [3, 9]: 1 µg/mL | MIC [3, 10]: 1 µg/mL | MIC [4, 11]: 0.25 µg/mL | MIC [4, 12]: 0.12 µg/mL | MIC [4, 13]: 0.12 µg/mL | MIC [5, 14]: 0.03 µg/mL | MIC ([5]; isolate 10 K. pneumoniae TEM-4, read-out: MIC): 0.03 µg/mL | MIC ([5]; isolate 11 K. pneumoniae CTX-M-15, read-out: MIC): 16 µg/mL | MIC ([5]; isolate 12 K. pneumoniae SHV-12, read-out: MIC): 0.03 µg/mL | MIC ([5]; isolate 13 K. pneumoniae KPC-3, read-out: MIC): 0.06 µg/mL | MIC ([5]; isolate 14 K. pneumoniae KPC-3, read-out: MIC): 16 µg/mL | MIC ([5]; isolate 15 K. pneumoniae KPC-2, read-out: MIC): 0.06 µg/mL | MIC [6, 15]: 1 µg/mL | MIC ([6]; isolate 17 P. aeruginosa Derepressed AmpC, read-out: MIC): 8 µg/mL | MIC ([6]; isolate 18 P. aeruginosa Derepressed AmpC, read-out: MIC): 0.12 µg/mL | MIC [6, 16]: 16 µg/mL | MIC ([6]; isolate 20 P. aeruginosa KPC-2, read-out: MIC): 16 µg/mL | MIC ([6]; isolate 21 P. aeruginosa KPC-2, read-out: MIC): 32 µg/mL

CC(=O)NC[C@H]1CN(c2ccc(N3CCOCC3)c(F)c2)C(=O)O1 [Linezolid]
MIC [3, 8]: 1 µg/mL | MIC [3, 9]: 2 µg/mL | MIC [3, 10]: 2 µg/mL | MIC [4, 11]: 2 µg/mL | MIC [4, 12]: 2 µg/mL | MIC [4, 13]: 2 µg/mL

CN(C)c1cc(NC(=O)CNC(C)(C)C)c(O)c2c1C[C@H]1C[C@H]3[C@H](N(C)C)C(O)=C(C(N)=O)C(=O)[C@@]3(O)C(O)=C1C2=O [Tigecycline]
MIC [1, 7]: 0.5 µg/mL | MIC ([1]; isolate 2 E. cloacae Derepressed AmpC): 1 µg/mL | MIC ([1]; isolate 3 E. cloacae Derepressed AmpC): 0.5 µg/mL | MIC ([2]; isolate 4 E. coli Basal MICs, read-out: MIC): 0.12 µg/mL | MIC ([2]; isolate 5 E. coli CTX-M-15): 0.25 µg/mL | MIC ([2]; isolate 6 E. coli TEM-4): 0.5 µg/mL | MIC ([2]; isolate 7 E. coli SHV-12): 0.5 µg/mL | MIC ([2]; isolate 8 E. coli SHV-2): 0.25 µg/mL | MIC ([3]; Enterococcus faecalis): 0.06 µg/mL | MIC ([3]; isolate 26 E. faecalis Basal MICs): 0.06 µg/mL | MIC ([3]; isolate 27 E. faecalis Basal MICs): 0.06 µg/mL | MIC ([4]; Staphylococcus aureus): 0.12 µg/mL | MIC ([4]; isolate 23 S. aureus Basal MICs, Penicillinase+): 0.12 µg/mL | MIC ([4]; isolate 24 S. aureus Basal MICs, Penicillinase+): 0.12 µg/mL | MIC [5, 14]: 0.25 µg/mL | MIC ([5]; isolate 10 K. pneumoniae TEM-4): 0.25 µg/mL | MIC ([5]; isolate 11 K. pneumoniae CTX-M-15): 1 µg/mL | MIC ([5]; isolate 12 K. pneumoniae SHV-12): 0.5 µg/mL | MIC ([5]; isolate 13 K. pneumoniae KPC-3): 1 µg/mL | MIC ([5]; isolate 14 K. pneumoniae KPC-3): 0.25 µg/mL | MIC ([5]; isolate 15 K. pneumoniae KPC-2): 0.5 µg/mL | MIC [6, 15]: 16 µg/mL | MIC ([6]; isolate 17 P. aeruginosa Derepressed AmpC): 32 µg/mL | MIC ([6]; isolate 18 P. aeruginosa Derepressed AmpC): 32 µg/mL | MIC [6, 16]: 32 µg/mL | MIC ([6]; isolate 20 P. aeruginosa KPC-2): 16 µg/mL | MIC ([6]; isolate 21 P. aeruginosa KPC-2): 2 µg/mL
